Legend:
[1] = target: T1, mu opioid receptor (MOR) (Homo sapiens, UniProt P35372); test: Hit Hunter cAMP signaling assay (adenylyl cyclase inhibition), PAM mode with EC20 endomorphin-1; type: cell-based
[2] = target: T1, mu opioid receptor (MOR); test: PathHunter β-arrestin recruitment assay, PAM mode with EC20 endomorphin-1; type: cell-based; details: for EC50: read-out: β-arr. EC50
Outline: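 Enzyme fragment complementation read-out: β-gal ED fragment fused to receptor, EA fused to β-arrestin, recruitment restoring β-gal activity detected by chemiluminescence. EC50 and percent maximal response derived for each compound.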

[3] = cAMP EC50, adenylyl cyclase inhibition
[4] = maximal response for adenylyl cyclase inhibition
[5] = maximal response for β-arrestin recruitment
[6] = adenylyl cyclase inhibition, read-out: cAMP EC50
[7] = maximal response, adenylyl cyclase inhibition
[8] = maximal response, β-arrestin recruitment

T1 sequence (P35372 whole entry): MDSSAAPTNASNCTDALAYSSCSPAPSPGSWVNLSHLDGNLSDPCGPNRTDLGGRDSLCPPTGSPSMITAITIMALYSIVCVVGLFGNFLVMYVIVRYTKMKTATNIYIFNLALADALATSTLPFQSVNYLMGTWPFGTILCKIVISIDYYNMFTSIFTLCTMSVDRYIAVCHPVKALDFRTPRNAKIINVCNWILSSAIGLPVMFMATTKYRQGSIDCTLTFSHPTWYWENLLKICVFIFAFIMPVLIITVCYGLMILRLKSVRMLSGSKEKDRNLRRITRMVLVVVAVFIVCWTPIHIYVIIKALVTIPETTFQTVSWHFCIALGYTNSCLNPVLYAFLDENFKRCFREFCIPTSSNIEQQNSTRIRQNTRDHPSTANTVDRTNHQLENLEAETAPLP

| Structure (SMILES) | EC50 [1, 3] [µM] | cAMP Max. Resp. [1, 4] | β-arr Max. Resp. [2, 5] | EC50 ([2]; β-arrestin recruitment) [µM] | EC50 [1, 6] [µM] | cAMP Max. Resp. [1, 7] | β-arr Max. Resp. [2, 8] |
| --- | --- | --- | --- | --- | --- | --- | --- |
| Fc1cnc(Cl)nc1N1CCCCC1c1cncc(C(F)(F)F)n1 (stereo not drawn) [compound 274] | 0.7 to 2.1 | D (D represents a maximal response of < 40%) | F (F represents a maximal response of > 60%) | > 2.1 | – | – | – |
| COc1ccc(C2CCCCN2c2cccc(C(F)(F)F)n2)cc1Br (stereo not drawn) [compound 227] | > 2.1 | F (F represents a maximal response of > 60%) | F (F represents a maximal response of > 60%) | > 2.1 | – | – | – |
| Fc1ccc(Cl)cc1CN1CCCCC1c1cccc(OC(F)(F)F)n1 (stereo not drawn) [compound 169] | < 0.7 | F (F represents a maximal response of > 60%) | F (F represents a maximal response of > 60%) | < 0.7 | – | – | – |
| Fc1cnc(Cl)nc1N1CCCCC1c1ccc(Cl)c(C(F)(F)F)c1 (single isomer, unassigned) [compound 348] | – | D (D represents a maximal response of < 40%) | D (D represents a maximal response of < 40%) | < 0.7 | – | – | – |
| Cc1ncc(F)c(N2CCCCC2c2cccc(C(F)(F)F)c2)n1 (stereo not drawn) [compound 269] | > 2.1 | D (D represents a maximal response of < 40%) | F (F represents a maximal response of > 60%) | > 2.1 | – | – | – |
| Fc1cnc(Cl)nc1N1CCC(F)(F)CC1c1cccc(C(F)(F)F)c1 (stereo not drawn) [compound 199] | 0.7 to 2.1 | E (E represents a maximal response of 40-60%) | F (F represents a maximal response of > 60%) | < 0.7 | – | – | – |
| Cc1ccc(C2C(C)CCN2S(=O)(=O)c2ccc(Cl)cc2)cc1Br (mixture of isomers) [Compound 104] | – | D (D represents a maximal response of < 40%) | F (F represents a maximal response of > 60%) | 0.7 to 2.1 | 0.7 to 2.1 | – | – |
| Cn1cnc2cc(C(F)(F)F)cc(C3CCCCN3c3nc(Cl)ncc3F)c21 (stereo not drawn) [compound 300] | > 2.1 | F (F represents a maximal response of > 60%) | E (E represents a maximal response of 40-60%) | > 2.1 | – | – | – |
| Fc1cnc(Cl)nc1N1CCCCC1c1cccnc1F (stereo not drawn) [compound 335] | < 0.7 | D (D represents a maximal response of < 40%) | D (D represents a maximal response of < 40%) | < 0.7 | – | – | – |
| Fc1cnc(Cl)nc1N1CCCCC1c1ccc(Cl)c(Br)c1 (single isomer, unassigned) [compound 125] | < 0.7 | F (F represents a maximal response of > 60%) | F (F represents a maximal response of > 60%) | < 0.7 | – | – | – |
| [2H]C1(c2ccc(F)c(Br)c2)C(F)CCCN1S(=O)(=O)c1ccc(Cl)cc1 (stereo not drawn) [Compound 29] | – | E (E represents a maximal response of 40-60%) | F (F represents a maximal response of > 60%) | – | – | – | – |
| Fc1cnc(Cl)nc1N1CCCCC1c1ccc(Cl)c(C(F)(F)F)c1 (stereo not drawn) [compound 128] | 0.7 to 2.1 | E (E represents a maximal response of 40-60%) | F (F represents a maximal response of > 60%) | < 0.7 | – | – | – |
| O=S(=O)(c1ccc(Cl)cc1)N1CCCCC1c1ccc(F)c(Br)c1 (single isomer, unassigned) [compound 446] | – | – | – | > 2.1 | > 2.1 | E (E represents a maximal response of 40-60%) | F (F represents a maximal response of > 60%) |
| COc1ncc(N2CCCCC2c2cccc(F)n2)c(F)n1 (stereo not drawn) [compound 296] | – | D (D represents a maximal response of < 40%) | D (D represents a maximal response of < 40%) | > 2.1 | > 2.1 | – | – |
| Fc1ccc(C2CCCCN2Cc2cc(Cl)ccc2Cl)cc1Cl (stereo not drawn) [compound 158] | < 0.7 | D (D represents a maximal response of < 40%) | F (F represents a maximal response of > 60%) | 0.7 to 2.1 | – | – | – |
| Fc1cccc(C2CCCCN2c2cc(Cl)ncc2F)n1 (stereo not drawn) [compound 262] | > 2.1 | D (D represents a maximal response of < 40%) | E (E represents a maximal response of 40-60%) | > 2.1 | – | – | – |
| Fc1ccc(C2CCCCN2c2nc(Cl)ncc2F)cc1Br (stereo not drawn) [compound 124] | < 0.7 | E (E represents a maximal response of 40-60%) | F (F represents a maximal response of > 60%) | < 0.7 | – | – | – |
| Fc1ccc(C2CCCCN2c2nc(Cl)ncc2F)cc1Cl (single isomer, unassigned) [compound 343] | – | D (D represents a maximal response of < 40%) | D (D represents a maximal response of < 40%) | < 0.7 | < 0.7 | – | – |

| Structure (SMILES) | EC50 [1, 3] [µM] | cAMP Max. Resp. [1, 4] | β-arr Max. Resp. [2, 5] | EC50 ([2]; β-arrestin recruitment) [µM] | EC50 [1, 6] [µM] | cAMP Max. Resp. [1, 7] | β-arr Max. Resp. [2, 8] |
| --- | --- | --- | --- | --- | --- | --- | --- |
| [N-]=[N+]=Nc1cccc(C2CCCCN2Cc2cc(Cl)ccc2F)n1 (stereo not drawn) [compound 144] | > 2.1 | D (D represents a maximal response of < 40%) | E (E represents a maximal response of 40-60%) | > 2.1 | – | – | – |
| Fc1cc(C2CC(F)CCN2c2nc(Cl)ncc2F)cc(C(F)(F)F)c1 (stereo not drawn) [compound 196] | < 0.7 | F (F represents a maximal response of > 60%) | F (F represents a maximal response of > 60%) | < 0.7 | – | – | – |
| Fc1ccnc(C2CCCCN2c2nc(Cl)ncc2F)c1 (stereo not drawn) [compound 412] | < 0.7 | D (D represents a maximal response of < 40%) | D (D represents a maximal response of < 40%) | < 0.7 | – | – | – |
| Fc1cnc(Cl)nc1N1CCCCC1c1c(C(F)(F)F)ccc(F)c1Br (stereo not drawn) [compound 354] | < 0.7 | D (D represents a maximal response of < 40%) | D (D represents a maximal response of < 40%) | < 0.7 | – | – | – |
| COc1ccc(C2CCCCN2S(C)(=O)=O)cc1Br (stereo not drawn) [compound 16] | > 2.1 | D (D represents a maximal response of < 40%) | D (D represents a maximal response of < 40%) | > 2.1 | – | – | – |
| COC(=O)c1ccc(N2CCCCC2c2cccc(C(F)(F)F)n2)cc1 (stereo not drawn) [compound 478] | > 2.1 | – | – | > 2.1 | – | D (D represents a maximal response of < 40%) | F (F represents a maximal response of > 60%) |
| CC1CCN(S(=O)(=O)c2ccc(Cl)cc2)C1c1ccc(F)c(F)c1F (mixture of isomers) [Compound 98] | – | D (D represents a maximal response of < 40%) | E (E represents a maximal response of 40-60%) | > 2.1 | > 2.1 | – | – |
| FC(F)(F)c1cccc(C2CCCCN2Cc2ccnc(Cl)c2)n1 (stereo not drawn) [compound 166] | > 2.1 | E (E represents a maximal response of 40-60%) | F (F represents a maximal response of > 60%) | > 2.1 | – | – | – |
| [2H]C1(c2cccc(C(F)(F)F)c2)C(F)CCCN1c1nc(Cl)ncc1F (single isomer, unassigned) [compound 208] | – | F (F represents a maximal response of > 60%) | F (F represents a maximal response of > 60%) | > 2.1 | – | – | – |
| Fc1cnc(Cl)nc1N1CCCCC1c1ccc2ncsc2c1 (stereo not drawn) [compound 341] | < 0.7 | D (D represents a maximal response of < 40%) | D (D represents a maximal response of < 40%) | < 0.7 | – | – | – |
| [2H]C1(c2ccc(F)c(Br)c2)C(F)CCCN1S(=O)(=O)c1ccc(Cl)cc1F (stereo not drawn) [Compound 37] | – | D (D represents a maximal response of < 40%) | F (F represents a maximal response of > 60%) | – | – | – | – |
| OC1CCN(c2nc(Cl)ncc2F)C(c2cc(F)cc(C(F)(F)F)c2)C1 (stereo not drawn) [compound 201] | > 2.1 | F (F represents a maximal response of > 60%) | F (F represents a maximal response of > 60%) | > 2.1 | – | – | – |
| N#Cc1cc(C2CCCCN2S(=O)(=O)c2ccc(Cl)cc2)ccc1F (racemic) [compound 58] | – | D (D represents a maximal response of < 40%) | F (F represents a maximal response of > 60%) | > 2.1 | > 2.1 | – | – |
| CC1CCN(S(=O)(=O)c2ccc(Cl)cc2)C1c1ccc(Cl)c(C(F)(F)F)c1 (mixture of isomers) [Compound 87] | – | D (D represents a maximal response of < 40%) | F (F represents a maximal response of > 60%) | > 2.1 | > 2.1 | – | – |
| Fc1cnc(Cl)nc1N1CCC(F)CC1c1cccc(C(F)(F)F)c1 (stereo not drawn) [compound 197] | 0.7 to 2.1 | F (F represents a maximal response of > 60%) | F (F represents a maximal response of > 60%) | 0.7 to 2.1 | – | – | – |
| O=c1[nH]c2ccc(C3CCCCN3c3nc(Cl)ncc3F)cc2o1 (stereo not drawn) [compound 279] | > 2.1 | F (F represents a maximal response of > 60%) | D (D represents a maximal response of < 40%) | > 2.1 | – | – | – |
| Fc1ncc(F)c(N2CCCCC2c2cccc(C(F)(F)F)c2)n1 (stereo not drawn) [compound 368] | < 0.7 | D (D represents a maximal response of < 40%) | D (D represents a maximal response of < 40%) | < 0.7 | – | – | – |
| Fc1cnc(Cl)nc1N1CCCCC1c1cccc2ncnn12 (stereo not drawn) [compound 389] | < 0.7 | D (D represents a maximal response of < 40%) | D (D represents a maximal response of < 40%) | < 0.7 | – | – | – |

From patent publication US11071731B2, “Allosteric modulators of the mu opioid receptor” (Chiromics, LLC, priority 2017, dated 2021)
